Data on five compounds can be found in patent US5723501A, “Pharmaceutical compositions containing 3-IODO-1,2-propanediol having mucolytic activity” (Carter-Wallace, Inc., priority 1996, dated 1998).

Several values for one entry are separate records, joined by “and”; a condition that tells them apart may be missing. Equal entries are not always repeated. Entries after “also recorded” stand apart in the source; their conditions may differ.

The test system of assay [1] is tracheal secretion of phenol red in mice. The experiment in a line: Tracheal secretion of phenol red in male mice (Engler and Szelenyi method). In kind it is in vivo. The conditions noted are these: for ED50: Mus musculus, po, 0.5 h, read-out: ED50 (dose stimulating tracheal secretion of phenol red by 50% over the control); for ED50 / effect on tracheal secretion of phenol red, dose dependence / ED50 (dose stimulating tracheal secretion of phenol red by 50% over the control): 30 minutes; for ED50 / ED50 (dose stimulating tracheal secretion of phenol red by 50% over the control): male mice; for Phenol Red Secretion, Treated: 30 min before phenol red i.p., * P<0.05 vs control; for Phenol Red Secretion, Treated / % Change in phenol red secretion: mean ± SFM; for % Change in phenol red secretion: vs control. The text has this:
Adult male mice weighing 14-40 g were used in this investigation. Animals were acclimatized to the laboratory environment for a minimum of five days prior to use in the experimental procedures. Housing was provided in environmentally controlled quarters in which temperature, humidity and ventilation were regulated based on the needs of the species. Husbandry practices and veterinary care were in accordance with the Guide for Care and Use of Laboratory Animals (NIH Publication No. 85-23). Tracheal secretion in mice, expressed by the amount of phenol red dye secreted into the lumen of the trachea was measured according to the method of Engler and Szelenyi. Male mice were randomly placed into appropriate treatment groups. On each experiment day, one to four mice in a group received orally either vehicle (distilled water or 1% acacia, 0.1 mL/10 g body weight) or a drug. Each drug was tested at a minimum of three different dose levels. Each drug dosage was tested in at least six animals. Drugs were administered orally (0.1 mL/10 g body weight) 30 minutes prior to intraperitoneal injection of phenol red (500 mg/kg: 5% solution in physiological saline, 0.1 mL/10 g body weight). Thirty minutes after phenol red injection the animals were sacrificed by exposure to CO2. The whole trachea was carefully excised and washed in 1.0 mL physiological saline for a period of 30 minutes. Subsequently, 0.1 mL of 1 M NaOH was added to the tracheal washings to stabilize the pH of the lavage fluid. The amount of phenol red was measured photometrically at […] in a Beckman Model 25 spectrophotometer. The amount of phenol red secreted in the tracheal lumen, expressed in μg/10 g body weight/hr, was determined by the formula of Graziani and Cazzulani: [formula] where: S=phenol red secreted per 10 g of body weight per hour (μg/10 g/hr). s=intensity of emission of the phenol red contained in 1.0 mL of tracheal lavage as determined from the standard curve of phenol red (0.5, 1, 5, and 10 μg/mL). V=volume of the tracheal lavage (1.0 mL). W=body weight of the mice expressed in grams. The results were expressed as mean ±S.F.M. Statistical significance was evaluated using the t-test for independent means, where P<0.05 is considered to be significant as compared to the appropriate control. The % increase in tracheal secretion of phenol red by each dose of a drug was determined by using the following formula: [formula] T=tracheal secretion of phenol red (μg/10 g/hr) in treated mice each day. C=tracheal secretion of phenol red (μg/10 g/hr) in untreated mice each day. The line of best fit was calculated from the dose response curve of each drug and the ED50 (mg/kg), i.e. the dose stimulating tracheal secretion of phenol red by 50% over the control level, was determined and 95% confidence limits were also calculated.

The test system of assay [2] is citric acid (aerosol)-induced coughing responses in guinea pigs. As to conditions: cited from earlier work.
Assay [3] deals with mechanical or electrical stimulation in the cat. As to conditions: cited from earlier work.
Assay [4] concerns tracheal secretion in mice. As to conditions: cited from earlier work.

`OCC(O)CI` (stereo not drawn) [3-iodo-1,2-propanediol]: in assay [1] (p.o.), the ED50 was 0.75 mg/kg. Besides, the “Phenol Red Secretion, Treated” value in assay [1] (oral dose 0.3 mg/kg) worked out at 1.02 ± 0.06 μg/10 g/hr; in assay [1] (oral dose 1.0 mg/kg), 1.16 ± 0.13 μg/10 g/hr; in assay [1] (oral dose 10.0 mg/kg), 1.32 ± 0.16 μg/10 g/hr; in assay [1] (oral dose 30.0 mg/kg), 1.56 ± 0.23 μg/10 g/hr. For the same compound, the “% Change in phenol red secretion” value is reported as 37.5 ± 8.01% in assay [1] (oral dose 0.3 mg/kg), 56.55 ± 17.83% in assay [1] (oral dose 1.0 mg/kg), 77.36 ± 21.67% in assay [1] (oral dose 10.0 mg/kg) and 110.45 ± 31.5% in assay [1] (oral dose 30.0 mg/kg). In addition, in assay [1] (oral, mice), the “stimulation of tracheal secretion of phenol red” value (“stimulation” for short) was “stimulates tracheal secretion of phenol red; also recorded: effective in stimulating tracheal secretion of phenol red”. For the same compound, the “effectiveness relative to iodinated glycerol in stimulating tracheal secretion of phenol red” value in assay [1] (oral, mice, times as effective as iodinated glycerol) is “about 90 times”. The “effect on tracheal secretion of phenol red, dose dependence” value (“effect on tracheal secretion” below) in assay [1] (p.o., mice) is “dose-dependent increase; also recorded: dose-dependent stimulation”. Also, the “antitussive effect” value in assay [2] and in assay [3] was “antitussive effect” in each case.

As to `CC(C)(C)NCC(O)c1ccc(O)c(CO)c1` (stereo not drawn) [Albuterol], in assay [1] (p.o.), the ED50 came out at 0.18 mg/kg. Besides, the “Phenol Red Secretion, Treated” value came to 0.85 ± 0.08 μg/10 g/hr in assay [1] (oral dose 0.1 mg/kg), 1.30 ± 0.16 μg/10 g/hr in assay [1] (oral dose 0.3 mg/kg) and 1.60 ± 0.09 μg/10 g/hr in assay [1] (oral dose 1.0 mg/kg). Besides, the “% Change in phenol red secretion” value in assay [1] (oral dose 0.1 mg/kg) was found to be 20.5 ± 10.6%; in assay [1] (oral dose 0.3 mg/kg), 78.4 ± 22.9%; in assay [1] (oral dose 1.0 mg/kg), 118.6 ± 11.6%. Also, in assay [1] (oral, mice), the “stimulation” value was “stimulated tracheal secretion of phenol red”. Further, the “effect on tracheal secretion” value in assay [1] (p.o., mice) is reported as “dose-dependent increase”. The “oral ED50 reported earlier by others” value in assay [4] is “about 4 mg/kg”.

Take `CN(Cc1cc(Br)cc(Br)c1N)C1CCCCC1` [Bromhexine]: in assay [1] (3 or 30 mg/kg, p.o.), the “significant increase in phenol red tracheal secretion” value was “not at 3 or 30 mg/kg”. In assay [1] (p.o.), the ED50 is above 100 mg/kg. The “increase in phenol red tracheal secretion” value in assay [1] (only at 100 mg/kg, p.o.) is recorded as “significant increase”. Also, the “Phenol Red Secretion, Treated” value in assay [1] (oral dose 3.0 mg/kg) came to 1.20 ± 0.13 μg/10 g/hr; in assay [1] (oral dose 30.0 mg/kg), 0.67 ± 0.10 μg/10 g/hr; in assay [1] (oral dose 100.0 mg/kg), 0.90 ± 0.10 μg/10 g/hr. The “% Change in phenol red secretion” value in assay [1] (oral dose 3.0 mg/kg) stood at 20.9 ± 12.9%; in assay [1] (oral dose 30.0 mg/kg), 0 ± 0%; in assay [1] (oral dose 100.0 mg/kg) it was 40.6 ± 17.0%. Moreover, in assay [1] (p.o., mice), the “effect on tracheal secretion” value is “weak to moderate nondose-related effect”. Besides, in assay [4] (40 mg/kg, p.o., mice), the “bronchosecretogogue activity reported by others” value is listed as “little or no bronchosecretogogue activity”.

As to `CC(=O)N[C@@H](CS)C(=O)O` [N-acetylcysteine], the ED50 in assay [1] (p.o.) was found to be 61.8 mg/kg. The “Phenol Red Secretion, Treated” value is given as 0.66 ± 0.06 μg/10 g/hr in assay [1] (oral dose 10.0 mg/kg), 1.00 ± 0.08 μg/10 g/hr in assay [1] (oral dose 50.0 mg/kg) and 1.30 ± 0.12 μg/10 g/hr in assay [1] (oral dose 200.0 mg/kg). Also, the “% Change in phenol red secretion” value in assay [1] (oral dose 10.0 mg/kg) was found to be 2.3 ± 13.2%; in assay [1] (oral dose 50.0 mg/kg), 51.6 ± 10.6%; in assay [1] (oral dose 200.0 mg/kg), 75.7 ± 1.5%. In addition, the “effect on tracheal secretion” value in assay [1] (p.o., mice) is listed as “dose-dependent increase”.

On to `[I-].[K+]` [Potassium Iodide, potassium iodide], for which the “Phenol Red Secretion, Treated” value in assay [1] (oral dose 50.0 mg/kg) amounted to 0.67 ± 0.07 μg/10 g/hr; in assay [1] (oral dose 100.0 mg/kg), 1.47 ± 0.15 μg/10 g/hr; in assay [1] (oral dose 200.0 mg/kg) it was 0.96 ± 0.10 μg/10 g/hr. The “% Change in phenol red secretion” value in assay [1] (oral dose 50.0 mg/kg) was found to be 5.1 ± 11.2%; in assay [1] (oral dose 100.0 mg/kg), 45.8 ± 14.2%; in assay [1] (oral dose 200.0 mg/kg), 49.1 ± 12.2%. The “stimulation” value in assay [1] (oral, mice) is recorded as “stimulated tracheal secretion of phenol red”. In assay [1] (p.o., mice), the “effect on tracheal secretion” value is reported as “dose-dependent increase”. Further, the “ED50 (dose stimulating tracheal secretion of phenol red by 50% over the control)” value was ~ 200 mg/kg in assay [1] (p.o.); ~ 200 mg/kg and 200 mg/kg in assay [1] (p.o., listed as potassium iodide). For the same compound, in assay [4], the “oral ED50 reported earlier by others” value is recorded as around 4000 mg/kg.
